# Experimental data: patent publication US20090263341A1, “SOFT ANTICHOLINERGIC ESTERS” (priority 2005, published 2009)
# Where a name gives a salt, the structure may show the parent alone. Read-outs that look alike come from different tables or passages of the source.
# Legend:
# [1] = tested on: guinea pig ileum longitudinal muscle strips; assay: Guinea pig ileum longitudinal muscle assay, pA2 against acetylcholine (Schild plot)
# [2] = molecular target: muscarinic receptors (mainly M1) of rat brain cortex membranes (Rattus norvegicus, UniProt P08482); assay type: binding
# [3] = tested on: guinea pig tracheal rings; assay: Guinea pig trachea assay, pA2 against carbachol (Schild plot)
# Protocol: Changes in isometric tension were measured by a force displacement transducer (Experimetria, Budapest, Hungary) coupled to a Watanabe recorder. Cumulative concentration-effect curves were constructed to carbachol in the absence or presence of the antagonists. In each animal two preparations were used as time control (i.e., repeated carbachol curves in the absence of any antagonist) the remaining two preparations were used to test responses in the presence of two different concentrations of the antagonist.
# Antagonists were added to the organ bath 30 min prior to commencement of the agonist concentration versus effect curves. Schild plots were constructed for the antagonists against carbachol and pA2 values as well as slope estimates were obtained.
# Responses were measured as changes in isometric tension and calculated as a percentage of the maximum response attained in the initial concentration-response curve. Determination of antagonist potencies was done by constructing Schild double logarithmic plot of log (DR-1) versus −log M concentrations of the antagonist, and the slope of the plot was computed. […] Statistical significance was assessed by ANOVA followed by Dunnett test.
# [4] = tested on: acetylcholine-induced bronchoconstriction; settings: guinea pig, in vivo
# [5] = tested on: electrically stimulated guinea pig tracheal strips; assay: Time course of anticholinergic effect in electrically stimulated guinea pig trachea
# [6] = molecular target: T1, cloned human muscarinic receptor subtype M1 (Homo sapiens, UniProt P11229); assay: Receptor binding, [3H]NMS, cloned human muscarinic receptor M1
# T1 sequence (P11229 1-460): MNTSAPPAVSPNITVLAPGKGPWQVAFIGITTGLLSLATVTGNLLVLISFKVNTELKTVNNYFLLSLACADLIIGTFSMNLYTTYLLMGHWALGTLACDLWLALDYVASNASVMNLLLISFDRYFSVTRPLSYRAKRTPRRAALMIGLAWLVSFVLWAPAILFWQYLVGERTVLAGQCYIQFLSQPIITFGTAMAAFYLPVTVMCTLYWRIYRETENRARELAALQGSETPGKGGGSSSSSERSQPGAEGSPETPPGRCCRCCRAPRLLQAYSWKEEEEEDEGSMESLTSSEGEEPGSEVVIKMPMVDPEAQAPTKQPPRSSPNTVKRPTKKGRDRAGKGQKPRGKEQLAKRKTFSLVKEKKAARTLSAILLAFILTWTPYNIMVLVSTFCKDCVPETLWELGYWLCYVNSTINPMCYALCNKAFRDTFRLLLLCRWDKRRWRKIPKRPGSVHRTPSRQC
# [7] = molecular target: T2, cloned human muscarinic receptor subtype M3 (Homo sapiens, UniProt P20309); assay: Receptor binding, [3H]NMS, cloned human muscarinic receptor M3
# T2 construct: purchased Applied Cell Science Inc. (Rockville, Md.)
# [8] = molecular target: T3, cloned human muscarinic receptor subtype M4 (Homo sapiens, UniProt P08173); assay: Receptor binding, [3H]NMS, cloned human muscarinic receptor M4
# T3 construct: purchased Applied Cell Science Inc. (Rockville, Md.)
# T3 sequence (P08173 1-479): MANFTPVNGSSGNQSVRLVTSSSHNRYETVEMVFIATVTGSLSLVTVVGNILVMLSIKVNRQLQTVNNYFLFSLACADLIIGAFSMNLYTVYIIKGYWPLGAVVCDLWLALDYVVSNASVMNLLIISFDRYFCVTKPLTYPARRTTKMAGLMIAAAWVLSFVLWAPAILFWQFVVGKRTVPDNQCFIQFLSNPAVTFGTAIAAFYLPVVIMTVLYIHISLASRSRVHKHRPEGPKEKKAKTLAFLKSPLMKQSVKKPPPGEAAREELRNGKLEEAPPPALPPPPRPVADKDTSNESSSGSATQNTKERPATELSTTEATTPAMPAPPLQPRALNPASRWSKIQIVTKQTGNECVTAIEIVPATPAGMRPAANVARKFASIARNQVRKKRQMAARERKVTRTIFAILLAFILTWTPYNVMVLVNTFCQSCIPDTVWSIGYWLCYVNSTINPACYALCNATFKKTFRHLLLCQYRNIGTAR
# [9] = molecular target: cloned human muscarinic receptor subtypes M1-M4; assay: Receptor binding at cloned human muscarinic receptors, values stated across subtypes (ranges, M3/M2 selectivity)
# [10] = molecular target: T4, cloned human muscarinic receptor subtype M2 (Homo sapiens, UniProt P08172); assay: Receptor binding, [3H]NMS, cloned human muscarinic receptor M2
# T4 sequence (P08172 1-466): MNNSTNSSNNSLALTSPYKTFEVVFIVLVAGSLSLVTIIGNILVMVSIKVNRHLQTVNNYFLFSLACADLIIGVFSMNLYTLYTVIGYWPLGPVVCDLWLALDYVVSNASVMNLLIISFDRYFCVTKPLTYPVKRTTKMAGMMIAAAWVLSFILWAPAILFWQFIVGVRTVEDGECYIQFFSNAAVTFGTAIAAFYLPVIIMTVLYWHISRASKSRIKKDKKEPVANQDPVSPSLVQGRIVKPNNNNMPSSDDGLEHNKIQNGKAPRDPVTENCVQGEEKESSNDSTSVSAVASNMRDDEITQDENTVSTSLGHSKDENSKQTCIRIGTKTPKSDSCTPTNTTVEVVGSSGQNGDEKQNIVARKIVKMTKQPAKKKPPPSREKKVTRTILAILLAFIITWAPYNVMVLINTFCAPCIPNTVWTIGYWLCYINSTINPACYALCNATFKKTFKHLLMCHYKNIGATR
# [11] = tested on: guinea pig ileum (M3 muscarinic receptors)
# [12] = time from washout to 20% recovery of cholinergic responses
smiles,measurement,setting,value
"C[N+]1(CC(=O)O)[C@@H]2C[C@@H](OC(=O)C(O)(c3cccs3)c3cccs3)C[C@H]1[C@@H]1O[C@@H]12 (stereo partly drawn) (as salt: salt) [Compound (aa), 6β,7β-epoxy-3β-hydroxy-8-carboxymethyl-8-methyl-1αH,5αH-tropanuim, di-2-thienylglycolate inner salt]",melting point,,158 to 165 °C (dec.)
"CCOC(=O)C[N@+]1(C)CC[C@@H](OC(=O)[C@](O)(c2ccccc2)C2CCCC2)C1 [Compound (m), (2R,1′R,3′R) 3-(2-cyclopentyl-2-phenyl-2-hydroxyacetoxy)-1-(ethoxycarbonylmethyl)-1-methylpyrrolidinium bromide]","pA2, Ileum",[1]; tissue samples from four animals,8.48
same,Hill slope,[2]; Table 8,−0.93 ± 0.08
same,"pA2, Trachea","[3]; against carbachol, tissue from four animals",8.12
same,effect on acetylcholine-induced bronchoconstriction,[4],protective effect
"CN1[C@@H]2CC[C@H]1C[C@@H](OC(=O)C(CO)c1ccccc1)C2 (some centres unmarked) [Atropine, atropine]","pA2, Ileum",[1],8.52
same,t1/5 offset,[5],10 min
same,t1/5 onset,[5],2.5 min
"C[N+]1(CC(=O)O)[C@@H]2C[C@@H](OC(=O)C(O)(c3cccs3)c3cccs3)C[C@H]1[C@@H]1O[C@@H]12 (stereo partly drawn) [Compound (aa), 6β,7β-epoxy-3β-hydroxy-8-carboxymethyl-8-methyl-1αH,5αH-tropanuim, di-2-thienylglycolate inner salt]",t1/5 onset,[5]; onset of inhibition,0.9 min
same,t1/5 offset,[5]; [12],27 min
"CCOC(=O)C[N+]1(C)[C@@H]2C[C@@H](OC(=O)C(O)(c3cccs3)c3cccs3)C[C@H]1[C@@H]1O[C@@H]12 (stereo partly drawn) [Compound (w), 6β,7β-epoxy-3,8-hydroxy-8-ethoxycarbonylmethyl-8-methyl-1αH,5αH-tropaniun bromide, di-2-thienylglycolate]",t1/5 onset,[5]; onset of inhibition,0.6 min
same,t1/5 offset,[5]; [12],60 min
same,Hill slope,[2],−1.00 ± 0.04
same,Ki,[2],7.2 ± 0.5 nM
same,"pA2, Trachea",[3],8.82
"CCOC(=O)C[N+]1(C)CC[C@H](OC(=O)[C@](O)(c2ccccc2)C2CCCC2)C1 (mixture of isomers) [Compound (j), (2R,3′S) 3-(2-cyclopentyl-2-phenyl-2-hydroxyacetoxy)-1-(ethoxycarbonylmethyl)-1-methylpyrrolidinium bromide]",Ki,"[6]; mean ± SD of 3 experiments, read-out: receptor binding affinity pKi, M1 (converted)",2.09 nM
same,"Hill slope, M1",[6]; numbers in parentheses,(1.21 ± 0.33)
same,Ki,"[7]; mean ± SD of 3 experiments, read-out: receptor binding affinity pKi, M3 (converted)",2.29 nM
same,"Hill slope, M3",[7]; numbers in parentheses,(1.33 ± 0.16)
same,Ki,"[8]; mean ± SD of 3 experiments, read-out: receptor binding affinity pKi, M4 (converted)",1.95 nM
same,"Hill slope, M4",[8]; numbers in parentheses,(1.15 ± 0.03)
same,"pKi, range over subtypes M1-M4",[9],8.2-8.7
same,Selectivity M3/M2 (affinity ratio),[9]; M3/M2 affinity ratio,2.8±0.8 times
same,Ki,"[10]; mean ± SD of 3 experiments, read-out: receptor binding affinity pKi, M2 (converted)",6.17 nM
same,"Hill slope, M2",[10]; numbers in parentheses,(1.27 ± 0.11)
"CCOC(=O)C[N@@+]1(C)CC[C@@H](OC(=O)[C@](O)(c2ccccc2)C2CCCC2)C1 [Compound (n), (2R,1′S,3′R) 3-(2-cyclopentyl-2-phenyl-2-hydroxyacetoxy)-1-(ethoxycarbonylmethyl)-1-methylpyrrolidinium bromide]",Hill slope,[2]; Table 8,−1.07 ± 0.02
C[N+]1(CC(=O)OCC(Cl)(Cl)Cl)[C@@H]2C[C@@H](OC(=O)C(O)(c3cccs3)c3cccs3)C[C@H]1[C@@H]1O[C@@H]12 (some centres unmarked) (as salt: bromide),melting point,,105 °C
"C[N+]1(C)[C@@H]2C[C@@H](OC(=O)[C@H](CO)c3ccccc3)C[C@H]1[C@@H]1O[C@@H]12 [scopolamine methyl bromide, scopolamine methylbromide, reference compound]","Hill slope, M2",[10],(1.02 ± 0.02)
"CCOC(=O)C[N+]1(C)[C@@H]2C[C@@H](OC(=O)C(O)(c3cccs3)c3cccs3)C[C@H]1[C@@H]1O[C@@H]12 (stereo partly drawn) (as salt: bromide) [Compound (w), 6β,7β-epoxy-3,8-hydroxy-8-ethoxycarbonylmethyl-8-methyl-1αH,5αH-tropaniun bromide, di-2-thienylglycolate]",melting point,,115 °C
"C[N+]1(C)CCC(OC(=O)C(O)(c2ccccc2)C2CCCC2)C1.[Br-] (mixture of isomers) [glycopyrrolate, 3-(2-cyclopentyl-2-phenyl-2-hydroxyacetoxy)-1,1-dimethylpyrrolidinium bromide, reference compound]","Hill slope, M1",[6],(1.37 ± 0.20)
same,"Hill slope, M3",[7],(1.14 ± 0.25)
same,"Hill slope, M4",[8],(1.02 ± 0.01)
same,"pA2, Ileum",[1],9.66
same,pA2,[11],8.57±0.12
same,"pA2, Trachea",[3],9.43
same,effect on acetylcholine-induced bronchoconstriction,[4],protective effect
same,"Hill slope, M2",[10],(0.99 ± 0.11)
"CC(C)[N+]1(C)[C@@H]2CC[C@H]1CC(OC(=O)C(CO)c1ccccc1)C2.[Br-] (some centres unmarked) [Ipratropium Br, ipratropium bromide, reference compound]",t1/5 onset,[5],3.0 min
same,"pA2, Trachea",[3],9.18
"C[N+]1(C)[C@@H]2C[C@@H](OC(=O)C(O)(c3cccs3)c3cccs3)C[C@H]1[C@@H]1O[C@@H]12 [Tiotropium, tiotropium]",t1/5 offset,[5],>360 min
same,t1/5 onset,[5],8.0 min
